Laboratory results from US10071081B2, “Compositions of 1,2,4-oxadiazole benzoic acid compounds and methods for their use” (PTC Therapeutics, Inc., priority 2003, dated 2018).
Counter-ions that a name gives are not always drawn.

System: luciferase reporter construct containing a UGA premature termination codon
Assay: cell-based luciferase reporter assay
Parameters: species or system Human; key to Activity: *****: both extremely high potency and extremely high efficacy of protein synthesis; ****: extremely high potency of protein synthesis and very high efficacy; ****: very high potency of protein synthesis and extremely high efficacy; ***: both very high potency and very high efficacy of protein synthesis; **: very high potency of protein synthesis and significant efficacy; **: significant potency of protein synthesis and very high efficacy; *: significant potency and efficacy of protein synthesis
Conditions: ranking combining potency and efficacy of protein synthesis; UGA luciferase reporter stably transfected in 293T Human Embryonic Kidney cells
Method: Activity measurements in Table I were performed in a cell-based luciferase reporter assay (as described in Section 4.2) comprising a luciferase reporter construct containing a UGA premature termination codon that was stably transfected in 293T Human Embryonic Kidney cells. A small molecule, 3-[3-(4-Isopropyl-phenyl)-2,5-dioxo-imidazolidin-1-yl]-benzoic acid, known to allow readthrough of premature termination codons was used was used as an internal standard. Activity measurements are based on the qualitative relation between the minimum concentration of compound required to produce a given protein in a cell (potency) and the maximum amount of protein produced by the cell (efficacy). Potency and efficacy activities are ranked as either extremely high, very high or significant. The combination of these activities is used to determine the activity ranking.
Two assays were developed for use in high throughput screens to identify small molecules that promote nonsense suppression. Each assay utilized luciferase because it is a functional reporter gene assay (light is only produced if the protein is functional) and it is extremely sensitive (Light intensity is proportional to luciferase concentration in the nM range). The first assay is a cell-based luciferase reporter assay and the second is a biochemical assay consisting of rabbit reticulocyte lysate and a nonsense-containing luciferase reporter mRNA. In the cell-based assay, a luciferase reporter construct containing a UGA premature termination codon was stably transfected in 293T Human Embryonic Kidney cells. In the biochemical assay, mRNA containing a UGA premature termination codon was used as a reporter in an in vitro translation reaction using rabbit reticulocyte lysate supplemented with tRNA, hemin, creatine kinase, amino acids, KOAc, Mg(OAc)2, and creatine phosphate. […] Synthetic mRNA was prepared in vitro using the T7 promoter and the MegaScript in vitro transcription kit (Ambion).
To determine whether compounds also function in vivo, a stable cell line harboring the UGA nonsense-containing luciferase gene was treated with selected compounds. Cells were grown in standard medium supplemented with 1% penicillin-streptomycin (P/S) and 10% fetal bovine serum (FBS) to 70% confluency and split 1:1 the day before treatment. On the following day, cells were trypsinized and 40,000 cells were added to each well of a 96-well tissue culture dish. Serial dilutions of each compound were prepared to generate a six-point dose response curve spanning 2 logs (30 μM to 0.3 μM). The final concentration of the DMSO solvent remained constant at 1% in each well. Cells treated with 1% DMSO served as the background standard, and cells treated with gentamicin served as a positive control.

SMILES | Activity
O=C(O)c1cccc(-c2noc(-c3cccnc3Cl)n2)c1 [Compound 63, 3-[5-(2-Chloro-pyridin-3-yl)-[1,2,4]oxadiazol-3-yl]-benzoic acid] | ****
O=C(O)c1cccc(-c2noc(Cc3cccs3)n2)c1 [Compound 32, 3-(5-Thiophen-2-ylmethyl-[1,2,4]oxadiazol-3-yl)-benzoic acid] | ****
O=C(O)c1cccc(-c2noc(-c3ccc(-c4ccccc4)cc3F)n2)c1 [Compound 81, 3-[5-(3-Fluoro-biphenyl-4-yl)-[1,2,4]oxadiazol-3-yl]-benzoic acid] | **
O=C(O)c1cccc(-c2noc(-c3cccc(F)c3F)n2)c1 [Compound 67, 3-[5-(2,3-Difluoro-phenyl)-[1,2,4]oxadiazol-3-yl]-benzoic acid] | ****
O=C(O)c1cccc(-c2noc(-c3ccc(Cl)cc3F)n2)c1 [Compound 73, 3-[5-(4-Chloro-2-fluoro-phenyl)-[1,2,4]oxadiazol-3-yl]-benzoic acid] | ****
O=C(O)c1cccc(-c2noc(-c3ccno3)n2)c1 [Compound 52, 3-(5-Isoxazol-5-yl-[1,2,4]oxadiazol-3-yl)-benzoic acid] | **
O=C(O)c1cccc(-c2noc(CC3CCCC3)n2)c1 [Compound 56, 3-(5-Cyclopentylmethyl-[1,2,4]oxadiazol-3-yl)-benzoic acid] | ***
O=C(O)c1cccc(-c2noc(-c3ccc(-n4cccc4)cc3)n2)c1 [Compound 41, 3-[5-(4-Pyrrol-1-yl-phenyl)-[1,2,4]oxadiazol-3-yl]-benzoic acid] | ****
O=C(O)c1cccc(-c2noc(-c3ccc4nonc4c3)n2)c1 [Compound 23, 3-(5-Benzo[1,2,5]oxadiazol-5-yl-[1,2,4]oxadiazol-3-yl)-benzoic acid] | ****
O=C(O)c1cccc(-c2noc(Cc3ccc(F)cc3)n2)c1 [Compound 48, 3-[5-(4-Fluoro-benzyl)-[1,2,4]oxadiazol-3-yl]-benzoic acid] | ****
COc1cccc(-c2nc(-c3cccc(C(=O)O)c3)no2)c1 [Compound 20, 3-[5-(3-Methoxy-phenyl)-[1,2,4]oxadiazol-3-yl]-benzoic acid] | ****
O=C(O)c1cccc(-c2noc(-c3ccccc3F)n2)c1 [Compound 28, 3-[5-(2-Fluoro-phenyl)-[1,2,4]oxadiazol-3-yl]-benzoic acid] | *****
O=C(O)c1cccc(-c2noc(-c3ccccc3C(F)(F)F)n2)c1 [Compound 35, 3-[5-(2-Trifluoromethyl-phenyl)-[1,2,4]oxadiazol-3-yl]-benzoic acid] | ****
O=C(O)c1cccc(-c2noc(-c3ccc(C(F)(F)F)cc3)n2)c1 [Compound 17, 3-[5-(4-Trifluoromethyl-phenyl)-[1,2,4]oxadiazol-3-yl]-benzoic acid] | *****
O=C([O][Na+])c1cccc(-c2noc(-c3ccccc3F)n2)c1 [Compound 78, 3-[5-(2-Fluoro-phenyl)-[1,2,4]oxadiazol-3-yl]-benzoic acid sodium salt] | *****
O=C(O)c1ccc(F)c(-c2noc(-c3ccc(F)cc3)n2)c1 [Compound 71, 4-Fluoro-3-[5-(4-fluoro-phenyl)-[1,2,4]oxadiazol-3-yl]-benzoic acid] | *
O=C(O)c1cccc(-c2noc(-c3ccncc3)n2)c1 [Compound 59, 3-(5-Pyridin-4-yl-[1,2,4]oxadiazol-3-yl)-benzoic acid] | ***
O=C(O)c1cccc(-c2noc(C3CCC3)n2)c1 [Compound 60, 3-(5-Cyclobutyl-[1,2,4]oxadiazol-3-yl)-benzoic acid] | **

SMILES | Activity
O=C(O)c1cccc(-c2noc(-c3cccc(OC(F)(F)F)c3)n2)c1 [Compound 47, 3-[5-(3-Trifluoromethoxy-phenyl)-[1,2,4]oxadiazol-3-yl]-benzoic acid] | ****
Cc1ccc(F)c(-c2nc(-c3cccc(C(=O)O)c3)no2)c1 [Compound 68, 3-[5-(2-Fluoro-5-methyl-phenyl)-[1,2,4]oxadiazol-3-yl]-benzoic acid] | ***
Cc1ccsc1-c1nc(-c2cccc(C(=O)O)c2)no1 [Compound 50, 3-[5-(3-Methyl-thiophen-2-yl)-[1,2,4]oxadiazol-3-yl]-benzoic acid] | *****
O=C(O)c1cccc(-c2noc(-c3c(F)cccc3F)n2)c1 [Compound 36, 3-[5-(2,6-Difluoro-phenyl)-[1,2,4]oxadiazol-3-yl]-benzoic acid] | ****
C/C=C/c1nc(-c2cccc(C(=O)O)c2)no1 [Compound 30, 3-(5-Propenyl-[1,2,4]oxadiazol-3-yl)-benzoic acid] | ****
O=C(O)c1cccc(-c2noc(-c3cc(C(F)(F)F)cc(C(F)(F)F)c3)n2)c1 [Compound 16, 3-[5-(3,5-Bis-trifluoromethyl-phenyl)-[1,2,4]oxadiazol-3-yl]-benzoic acid] | ****
O=C(O)c1cc(-c2noc(-c3ccc(F)cc3)n2)ccc1F [Compound 72, 2-Fluoro-5-[5-(4-fluoro-phenyl)-[1,2,4]oxadiazol-3-yl]-benzoic acid] | ***
O=C(O)c1cccc(-c2noc(COc3cccc(Cl)c3)n2)c1 [Compound 51, 3-[5-(3-Chloro-phenoxymethyl)-[1,2,4]oxadiazol-3-yl]-benzoic acid] | **
O=C(O)c1cccc(-c2noc(-c3ccc(-c4ccccc4)cc3F)n2)c1 [Compound 75, 3-[5-(3-Fluoro-biphenyl-4-yl)-[1,2,4]oxadiazol-3-yl]-benzoic acid] | ****
O=C(O)c1cccc(-c2noc(-c3ccco3)n2)c1 [Compound 21, 3-(5-Furan-2-yl-[1,2,4]oxadiazol-3-yl)-benzoic acid] | ****
O=C(O)c1cccc(-c2noc(-c3ccc(N4CCOCC4)nc3)n2)c1 [Compound 83, 3-[5-(6-Morpholin-4-yl-pyridin-3-yl)-[1,2,4]oxadiazol-3-yl]-benzoic acid] | ****
[N-]=[N+]=Nc1ccc(-c2nc(-c3cccc(C(=O)O)c3)no2)cc1 [Compound 94, 3-[5-(4-Azido-phenyl)-[1,2,4]oxadiazol-3-yl]-benzoic acid] | *****
CCCCCOc1ccc(-c2nc(-c3cccc(C(=O)O)c3)no2)cc1 [Compound 02, 3-[5-(4-Pentyloxy-phenyl)-[1,2,4]oxadiazol-3-yl]-benzoic acid] | ***
COCCOCCOCCOC(=O)c1cccc(-c2noc(-c3ccccc3F)n2)c1 [Compound 89, 3-[5-(2-Fluoro-phenyl)-[1,2,4]oxadiazol-3-yl]-benzoic acid 2-[2-(2-methoxy-ethoxy)-ethoxy]-ethyl ester] | **
COCCOCCOCCOCCOC(=O)c1cccc(-c2noc(-c3ccccc3F)n2)c1 [Compound 90, 3-[5-(2-Fluoro-phenyl)-[1,2,4]oxadiazol-3-yl]-benzoic acid 2-{2-[2-(2-methoxy-ethoxy)-ethoxy]-ethoxy}-ethyl ester] | **
CCC(c1ccccc1)c1nc(-c2cccc(C(=O)O)c2)no1 (centres unmarked) [Compound 45, 3-[5-(1-Phenyl-propyl)-[1,2,4]oxadiazol-3-yl]-benzoic acid] | *
CCCCc1nc(-c2cccc(C(=O)O)c2)no1 [Compound 26, 3-(5-Butyl-[1,2,4]oxadiazol-3-yl)-benzoic acid] | ****
